The numbers were not newly measured in patent EP4378455A1, “A PHARMACEUTICAL FORMULATION COMPRISING EMPAGLIFLOZIN” (SANOVEL ILAC SANAYI VE TICARET A.S., priority 2022, dated 2024), which cites them from elsewhere.

On to `OC[C@H]1O[C@@H](c2ccc(Cl)c(Cc3ccc(O[C@H]4CCOC4)cc3)c2)[C@H](O)[C@@H](O)[C@@H]1O` [Empagliflozin, (1S)-1,5-anhydro-1-(4-chloro-3-{4-[(3S)-tetrahydrofuran-3-yloxy]benzyl}phenyl)-D-glucitol], for which the solubility in acetonitrile entry (acetonitrile) is given as “slightly soluble”. Further, the solubility in ethanol result (ethanol) is “slightly soluble”. The solubility in methanol result (methanol) was “sparingly soluble”. Moreover, where the note is “toluene”, the solubility in toluene result was “practically insoluble”. Further, the solubility in water result (water (pH 1-7.4)) was “very slightly soluble”.
